≈ marks a conversion by molar mass, not a printed value. Like-named read-outs stand apart in the source and are kept apart here. Where a SMILES comes first, the peptide text is derived from it. Bridges are numbered along the chain shown (N, C = ends). Roman numbers before positions name the chains, in order. Side-chain parts run from the residue outwards. [ ]: non-standard residue; d: D form. The star is where a group is joined. Myristoyl = CCCCCCCCCCCCCC(=O)*; Lauroyl = CCCCCCCCCCCC(=O)*; Decanoyl = CCCCCCCCCC(=O)*; Nle = CCCC[C@H](N)C(=O)O; Octanoyl = CCCCCCCC(=O)*
Assays:
C. albicans ATCC 10231 = test system: C. albicans ATCC 10231
Protocol: (§1) The Acinetobacter baumannii ATCC BAA-1605, Enterococcus faecium ATCC 700221, Escherichia coli ML-35 ATCC 43827, Klebsiella aerogenes ATCC 13048, Klebsiella pneumoniae ATCC 700603, Pseudomonas aeruginosa ATCC 9027, Staphylococcus aureus ATCC 25923, Staphylococcus aureus ATCC 33591, Candida albicans ATCC 10231, Candida glabrata ATCC 15126, strains were acquired from the American Type Culture Collection (ATCC). All the strains were stored at −80 °C in Roti-Store cryo vials and before the tests were transferred into fresh Mueller–Hinton broth (MHB, Biocorp, Warsaw, Poland) for bacteria or RPMI-1640 (Sigma-Aldrich, Steinheim, Germany) for fungi and incubated for 24 h at 37 °C. Then, the cultures were seeded on the Mueller–Hinton agar (BioMaxima, Lublin, Poland) or Sabouraud dextrose agar (SDA, BioMaxima, Lublin, Poland) plates, respectively, and incubated as just mentioned. These agar cultures were used for further microbiological assays. Cell densities for all assays were adjusted spectrophotometrically (Multiskan GO Microplate Spectrophotometer, Thermo Fisher Scientific, Vantaa, Finland) at 600 and 530 nm for bacteria and fungi, respectively.
(§2) The MICs were determined by the broth microdilution method according to the Clinical and Laboratory Standard Institute guidelines. For this purpose, initial inoculums of bacteria (5 × 10^5 CFU/mL) in MHB and yeasts (2 × 10^3 CFU/mL) in RPMI-1640 with 2% D-glucose were exposed to the ranging concentration of lipopeptides (0.5–256 μg/mL) and incubated at 37 °C for 18 h and 24 h, respectively. The experiments were conducted on 96-well microtiter polystyrene plates (Kartell, Noviglio, Italy). The growth was assessed visually after incubation, and the MIC was assumed as the lowest peptide concentration at which a noticeable growth of microorganisms was inhibited. All experiments were conducted in triplicate.

C. glabrata ATCC 15126 [1] = test system: C. glabrata ATCC 15126
Protocol: as §1, §2

[2] = test system: E. coli ML-35 (ATCC 43827)
Text: The permeabilization of E. coli ML-35 (ATCC 43827) membranes was studied for selected compounds (A4, B2, C2, B7, and C7) to compare their activity and membrane disruption over time. […] For OM and IM permeabilization, CENTA and ONPG were used, respectively. The permeabilization of OM causes the release of periplasmic β-lactamase, which hydrolyzes CENTA’s β-lactam ring to form a chromophore, 2-nitro-5-thiobenzoate (TNB) anion, while the disruption of IM results in the release of β-galactosidase, which hydrolyzes ONPG into galactose and a chromophore, ortho-nitrophenol (ONP). Both products of enzymatic reaction absorb light at 405 nm.
as §2
Inner and outer membranes permeabilization kinetics were evaluated using Escherichia coli ML-35 (ATCC 43827) and chromogenic substrates—CENTA (BioVision, Milpitas, CA, USA) and o-nitrophenyl-β-d-galactopyranoside (ONPG) (Sigma-Aldrich, Steinheim, Germany), as described previously. To examine OM permeabilization, CENTA was used as a β-lactamase substrate. In effect of OM permeabilization, the enzyme can hydrolyze CENTA’s β-lactam ring. The resulting color change (2-nitro-5-thiobenzoate anion, TNB^-) could be measured spectrophotometrically at 405 nm. The IM permeabilization was monitored with ONPG, which is a chromogenic β-galactosidase substrate. The product of this reaction ([…]) was measured spectrophotometrically at 405 nm (Multiskan GO Microplate Spectrophotometer, Thermo Fisher Scientific, Vantaa, Finland). […] Bacteria were incubated in lysogeny broth medium (LB; Biocorp, Warszawa, Poland) for 24 h at 37 °C. Subsequently, the cells were diluted in a fresh LB medium and incubated at 37 °C up to a mid-log phase (ca. 3 h). The culture was centrifuged (3 min, 1100× g) and rinsed twice with a PBS. The bacteria were resuspended in PBS up to a concentration of 5 × 10^6 CFU/mL. The final concentration of ONPG and CENTA was 1.5 mM and 0.15 mM, respectively. The ONPG/CENTA in PBS (Sigma-Aldrich, Steinheim, Germany) was used as a negative control. […] Readings were taken every 15 min for 3 h at 37 °C [125, 142, 143, 144]. Experiments were performed in triplicate on 96-well flat bottom microtiter polystyrene plates.

S. aureus ATCC 33591 = assay type: cell-based, Staphylococcus aureus
Protocol: (§3) Minimal inhibitory concentrations of lipopeptides were determined in the presence of human serum to evaluate the effect of enzymatic degradation and protein binding of lipopeptides on antimicrobial activity. Serum concentrations were 1% and 10% (v/v). S. aureus (ATCC 33591), P. aeruginosa (ATCC 9027), and C. glabrata (ATCC 15126) were selected to this study.
as §2
(§4) The MICs were determined in the presence of normal human serum (NHS; Sigma-Aldrich, Human Serum, Normal) in concentrations of 1 and 10% (v/v). NHS was stored frozen at −20 °C and thawed just before use. Microorganisms were cultivated as described in 3.4.1. Serial dilutions of compounds, inoculum density, medium, and incubation conditions were prepared as described in Section 3.4.2. Stock solutions of test compounds were prepared in appropriate culture medium.

P. aeruginosa ATCC 9027 = assay type: cell-based, Pseudomonas aeruginosa
Protocol: as §3, §2, §4

C. glabrata ATCC 15126 [3] = assay type: cell-based, Candida glabrata
Protocol: as §3, §2, §4

Compound | MIC C. albicans ATCC 10231 (C. albicans ATCC 10231; ATCC 10231, 24 h) [µg/mL] | MIC C. glabrata ATCC 15126 (C. glabrata ATCC 15126 [1]; ATCC 15126, 24 h) [µg/mL] | other results
CCCCCCCCCC(=O)N[C@@H](CCCNC(=N)N)C(=O)N[C@@H](CCCNC(=N)N)C(=O)NCCCC[C@H](NC(=O)[C@H](CCCNC(=N)N)NC(=O)[C@H](CCCNC(=N)N)NC(=O)CCCCCCCCC)C(N)=O [Compound B2] (Decanoyl-Arg-Arg-Lys([Arg-Arg-Decanoyl])-NH2) | 8 (≈ 7.42 µM) | 4 (≈ 3.71 µM) | MIC E. coli ML-35 (ATCC 43827) [2]: 32 µg/mL (≈ 29.7 µM)
CCCCCCCC(=O)N[C@@H](CCCC)C(=O)N[C@@H](CCCNC(=N)N)C(=O)N[C@@H](CCCNC(=N)N)C(=O)NCCCC[C@H](NC(=O)[C@H](CCCNC(=N)N)NC(=O)[C@H](CCCNC(=N)N)NC(=O)[C@H](CCCC)NC(=O)CCCCCCC)C(N)=O [Compound B6] (Octanoyl-[Nle]RRK([Arg-Arg-Nle-Octanoyl])-NH2) | 16 (≈ 12.8 µM) | 16 (≈ 12.8 µM) | –
CCCCCCCC(=O)N[C@@H](CCCC)C(=O)N[C@@H](CCCNC(=N)N)C(=O)N[C@@H](CCCNC(=N)N)C(=O)N[C@@H](CSSC[C@H](NC(=O)[C@H](CCCNC(=N)N)NC(=O)[C@H](CCCNC(=N)N)NC(=O)[C@H](CCCC)NC(=O)CCCCCCC)C(N)=O)C(N)=O [Compound C6] (I: Octanoyl-[Nle]RRC-NH2 / II: Octanoyl-[Nle]RRC-NH2; disulfide I:4-II:4) | 16 (≈ 11.9 µM) | 16 (≈ 11.9 µM) | –
CCCCCCCC(=O)N[C@@H](CCCNC(=N)N)C(=O)N[C@@H](CCCNC(=N)N)C(=O)NCCCC[C@H](NC(=O)[C@H](CCCNC(=N)N)NC(=O)[C@H](CCCNC(=N)N)NC(=O)CCCCCCC)C(N)=O [Compound B1] (Octanoyl-Arg-Arg-Lys([Arg-Arg-Octanoyl])-NH2) | 64 (≈ 62.6 µM) | 64 (≈ 62.6 µM) | –
CCCCCCCCCCCCCC(=O)N[C@@H](CCCNC(=N)N)C(=O)N[C@@H](CCCNC(=N)N)C(=O)N[C@@H](CSSC[C@H](NC(=O)[C@H](CCCNC(=N)N)NC(=O)[C@H](CCCNC(=N)N)NC(=O)CCCCCCCCCCCCC)C(N)=O)C(N)=O [Compound C4] (I: Myristoyl-Arg-Arg-Cys-NH2 / II: Myristoyl-Arg-Arg-Cys-NH2; disulfide I:3-II:3) | 2 (≈ 1.56 µM) | 1 (≈ 0.779 µM) | –
CCCCCCCC(=O)N[C@@H](Cc1ccccc1)C(=O)N[C@@H](CCCNC(=N)N)C(=O)N[C@@H](CCCNC(=N)N)C(=O)N[C@@H](CSSC[C@H](NC(=O)[C@H](CCCNC(=N)N)NC(=O)[C@H](CCCNC(=N)N)NC(=O)[C@H](Cc1ccccc1)NC(=O)CCCCCCC)C(N)=O)C(N)=O [Compound C5] (I: Octanoyl-FRRC-NH2 / II: Octanoyl-FRRC-NH2; disulfide I:4-II:4) | – | – | MIC C. albicans ATCC 10231 (C. albicans ATCC 10231; planktonic culture): 8 µg/mL (≈ 5.67 µM); MIC C. glabrata ATCC 15126 (C. glabrata ATCC 15126 [1]; planktonic culture): 8 µg/mL (≈ 5.67 µM); MIC S. aureus ATCC 33591 (S. aureus ATCC 33591; human serum 0% (v/v)): 2 µg/mL (≈ 1.42 µM); MIC S. aureus ATCC 33591 (S. aureus ATCC 33591; human serum 1% (v/v)): 64 µg/mL (≈ 45.4 µM); MIC S. aureus ATCC 33591 (S. aureus ATCC 33591; human serum 10% (v/v)): 256 µg/mL (≈ 182 µM); MIC P. aeruginosa ATCC 9027 (P. aeruginosa ATCC 9027; human serum 0% (v/v)): 8 µg/mL (≈ 5.67 µM); MIC P. aeruginosa ATCC 9027 (P. aeruginosa ATCC 9027; human serum 1% (v/v)): 128 µg/mL (≈ 90.8 µM); MIC P. aeruginosa ATCC 9027 (P. aeruginosa ATCC 9027; human serum 10% (v/v)): >256 µg/mL; MIC C. glabrata ATCC 15126 (C. glabrata ATCC 15126 [3]; human serum 0% (v/v)): 8 µg/mL (≈ 5.67 µM); MIC C. glabrata ATCC 15126 (C. glabrata ATCC 15126 [3]; human serum 1% (v/v)): 128 µg/mL (≈ 90.8 µM); MIC C. glabrata ATCC 15126 (C. glabrata ATCC 15126 [3]; human serum 10% (v/v)): >256 µg/mL
CCCCCCCC(=O)N[C@@H](Cc1ccccc1)C(=O)N[C@@H](CCCNC(=N)N)C(=O)N[C@@H](CCCNC(=N)N)C(=O)NCCCC[C@H](NC(=O)[C@H](CCCNC(=N)N)NC(=O)[C@H](CCCNC(=N)N)NC(=O)[C@H](Cc1ccccc1)NC(=O)CCCCCCC)C(N)=O [Compound B5] (Octanoyl-FRRK([Arg-Arg-Phe-Octanoyl])-NH2) | 16 (≈ 12.2 µM) | 16 (≈ 12.2 µM) | –
CCCCCCCC(=O)N[C@@H](CCCNC(=N)N)C(=O)N[C@@H](CCCNC(=N)N)C(=O)N[C@@H](CSSC[C@H](NC(=O)[C@H](CCCNC(=N)N)NC(=O)[C@H](CCCNC(=N)N)NC(=O)CCCCCCC)C(N)=O)C(N)=O [Compound C1] (I: Octanoyl-Arg-Arg-Cys-NH2 / II: Octanoyl-Arg-Arg-Cys-NH2; disulfide I:3-II:3) | 128 (≈ 115 µM) | 64 (≈ 57.4 µM) | –
CCCCCCCCCCCC(=O)N[C@@H](CCCNC(=N)N)C(=O)N[C@@H](CCCNC(=N)N)C(=O)N[C@@H](CSSC[C@H](NC(=O)[C@H](CCCNC(=N)N)NC(=O)[C@H](CCCNC(=N)N)NC(=O)CCCCCCCCCCC)C(N)=O)C(N)=O [Compound C3] (I: Lauroyl-Arg-Arg-Cys-NH2 / II: Lauroyl-Arg-Arg-Cys-NH2; disulfide I:3-II:3) | 1 (≈ 0.815 µM) | 2 (≈ 1.63 µM) | MIC S. aureus ATCC 33591 (S. aureus ATCC 33591; human serum 10% (v/v)): 32 µg/mL (≈ 26.1 µM); MIC P. aeruginosa ATCC 9027 (P. aeruginosa ATCC 9027; human serum 10% (v/v)): 256 µg/mL (≈ 209 µM); MIC C. glabrata ATCC 15126 (C. glabrata ATCC 15126 [3]; human serum 10% (v/v)): > 256 µg/mL
CCCCCCCCCCCCCC(=O)N[C@@H](CCCNC(=N)N)C(=O)N[C@@H](CCCNC(=N)N)C(=O)NCCCC[C@H](NC(=O)[C@H](CCCNC(=N)N)NC(=O)[C@H](CCCNC(=N)N)NC(=O)CCCCCCCCCCCCC)C(N)=O [Compound B4] (Myristoyl-Arg-Arg-Lys([Arg-Arg-Myristoyl])-NH2) | 4 (≈ 3.36 µM) | 2 (≈ 1.68 µM) | –
CCCCCCCCCCCC(=O)N[C@@H](CCCNC(=N)N)C(=O)N[C@@H](CCCNC(=N)N)C(=O)NCCCC[C@H](NC(=O)[C@H](CCCNC(=N)N)NC(=O)[C@H](CCCNC(=N)N)NC(=O)CCCCCCCCCCC)C(N)=O [Compound B3] (Lauroyl-Arg-Arg-Lys([Arg-Arg-Lauroyl])-NH2) | 2 (≈ 1.76 µM) | 2 (≈ 1.76 µM) | MIC S. aureus ATCC 33591 (S. aureus ATCC 33591; human serum 10% (v/v)): 16 µg/mL (≈ 14.1 µM); MIC P. aeruginosa ATCC 9027 (P. aeruginosa ATCC 9027; human serum 10% (v/v)): 64 µg/mL (≈ 56.4 µM); MIC C. glabrata ATCC 15126 (C. glabrata ATCC 15126 [3]; human serum 10% (v/v)): > 256 µg/mL

— article PMC8036666, “Biological and Physico-Chemical Characteristics of Arginine-Rich Peptide Gemini Surfactants with Lysine and Cystine Spacers” (International Journal of Molecular Sciences, 2021)
